Data as given in patent US9375416B2, “Epigallocatechin gallate tetramer and vascular endothelial function improving agent containing the same” (SUNTORY HOLDING LIMITED, priority 2008, dated 2016).

Tests used:
Format in all cases: cell-based
Settings in all cases: human umbilical vascular endothelial cells, 10 μM, 8 hours, untreated cells as control
[1] = system: Nox4 subunit gene of NADPH oxidase; experiment: Expression of Nox4 subunit gene of NADPH oxidase in cultured vascular endothelial cells (quantitative PCR)
Description: (§1) With respect to the compounds of Formula (II) and Formula (III) synthesized and purified in Example 1, the effect of them on expression of a gene involved in the vascular endothelial function was studied. Furthermore, as compounds for comparison, an EGCG monomer (manufactured by Wako Pure Chemical Industries Ltd.), theaflavin, theaflavin 3-O-gallate, theaflavin 3′-O-gallate and theaflavin 3,3′-O-digallate (manufactured by Nagara Science Co., Ltd.), which are known to have a vascular endothelial function improving action.
(§2) These compounds were dissolved in sterilized dimethyl sulfoxide (DMSO, manufactured by Nacalai Tesque Inc.) to prepare a solution having a concentration of 10 mM.
(§3) These solutions were diluted 1000 fold by using HuMedia-EG2 medium (manufactured by Kurabo Industries Ltd.) to prepare a solution having a final concentration of 10 μM (the final concentration of DMSO was 0.1 V/V %). These sample solutions each were added to human umbilical vascular endothelial cells (manufactured by Kurabo Industries Ltd.) cultured in a 6-well plate in a proportion of 3 mL/well and incubated at 37° C. under 5% CO2 conditions for 8 hours.
(§4) The cells were recovered by ISOGEN (manufactured by Nippon Gene Co., Ltd.) and RNA was extracted from the cells. Furthermore, RNA was purified by RNeasy Mini Kit (QIAGEN). cDNA was synthesized by a High-Capacity cDNA reverse transcription kit (manufactured by Applied Biosystem) using the total RNA (200 ng) purified as a template and quantitative PCR was performed. Analysis was performed by comparative Ct method with a glyceraldehyde-3-phosphate dehydrogenase gene used as an internal standard. The gene expression change ratio (ratio relative to the control) of a test sample was calculated by using untreated cells as a control.

[2] = system: GTP-CH1 gene; experiment: GTP-CH1 gene expression in cultured vascular endothelial cells (quantitative PCR)
Description: as §1, §2, §3, §4

[3] = system: eNOS gene; experiment: eNOS gene expression in cultured vascular endothelial cells (quantitative PCR)
Description: as §1, §2, §3, §4

[4] = system: DDAH2 gene; experiment: DDAH2 gene expression in cultured vascular endothelial cells (quantitative PCR)
Description: as §1, §2, §3, §4

O=C(OC1Cc2c(O)cc(O)c(Cc3c(O)cc(O)c4c3OC(c3cc(O)c(O)c(O)c3)C(OC(=O)c3cc(O)c(O)c(O)c3)C4)c2OC1c1cc(O)c(O)c(O)c1)c1cc(O)c(O)c(O)c1 (centres unmarked) [oolong homobisflavan-A, oolong homobisflavan A]
do not substantially change: expression of Nox4 subunit gene of NADPH oxidase (gene expression change ratio relative to the control) [1] | expression of the GTP-CH1 gene (gene expression change ratio relative to the control) [2] | expression of the eNOS gene (gene expression change ratio relative to the control) [3] | expression of the DDAH2 gene (gene expression change ratio relative to the control) [4]

O=C(OC1Cc2c(cc(O)c(Cc3c(O)cc(O)c4c3OC(c3cc(O)c(O)c(O)c3)C(OC(=O)c3cc(O)c(O)c(O)c3)C4)c2O)OC1c1cc(O)c(O)c(O)c1)c1cc(O)c(O)c(O)c1 (centres unmarked) [oolong homobisflavan-B]
do not substantially change: expression of Nox4 subunit gene of NADPH oxidase (gene expression change ratio relative to the control) [1] | expression of the GTP-CH1 gene (gene expression change ratio relative to the control) [2] | expression of the eNOS gene (gene expression change ratio relative to the control) [3] | expression of the DDAH2 gene (gene expression change ratio relative to the control) [4]

O=C(O[C@@H]1Cc2c(cc(O)c(Cc3c(O)cc4c(c3O)C[C@@H](OC(=O)c3cc(O)c(O)c(O)c3)[C@@H](c3cc(O)c(O)c(O)c3)O4)c2O)O[C@@H]1c1cc(O)c(O)c(O)c1)c1cc(O)c(O)c(O)c1 [oolong homobisflavan-C]
do not substantially change: expression of Nox4 subunit gene of NADPH oxidase (gene expression change ratio relative to the control) [1] | expression of the GTP-CH1 gene (gene expression change ratio relative to the control) [2] | expression of the eNOS gene (gene expression change ratio relative to the control) [3] | expression of the DDAH2 gene (gene expression change ratio relative to the control) [4]

O=C(O[C@@H]1Cc2c(O)cc(O)cc2O[C@@H]1c1cc(O)c(O)c(O)c1-c1c([C@H]2Oc3cc(O)cc(O)c3C[C@H]2OC(=O)c2cc(O)c(O)c(O)c2)cc(O)c(O)c1O)c1cc(O)c(O)c(O)c1 [theasinensin A]
do not substantially change: expression of Nox4 subunit gene of NADPH oxidase (gene expression change ratio relative to the control) [1] | expression of the GTP-CH1 gene (gene expression change ratio relative to the control) [2] | expression of the eNOS gene (gene expression change ratio relative to the control) [3] | expression of the DDAH2 gene (gene expression change ratio relative to the control) [4]

(−)-epigallocatechin-3-O-gallate [EGCG monomer]
do not substantially change: expression of Nox4 subunit gene of NADPH oxidase (gene expression change ratio relative to the control) [1] | expression of the GTP-CH1 gene (gene expression change ratio relative to the control) [2] | expression of the eNOS gene (gene expression change ratio relative to the control) [3] | expression of the DDAH2 gene (gene expression change ratio relative to the control) [4]
